Tests used:
[1] = molecular target: Serine/threonine-protein kinase 3 (Homo sapiens) (UniProt Q13188); experiment: Inhibition of human MST2 at 100 nM using MBP as substrate by [gamma-33P]-ATP assay
[2] = molecular target: Glycogen synthase kinase-3 alpha (Homo sapiens) (UniProt P49840); experiment: Inhibition of human GSK3A at 100 nM using YRRAAVPPSPSLSRHSSPHQ(pS)EDEEE as substrate by [gamma-33P]-ATP assay
[3] = molecular target: Mitogen-activated protein kinase kinase kinase 19 (Homo sapiens) (UniProt Q56UN5); experiment: Inhibition of human YSK4 at 100 nM using MBP as substrate by [gamma-33P]-ATP assay
[4] = molecular target: Ephrin type-B receptor 2 (Homo sapiens) (UniProt P29323); experiment: Inhibition of human EPHB2 at 100 nM using poly[Glu:Tyr] (4:1) as substrate by [gamma-33P]-ATP assay
[5] = molecular target: Serine/threonine-protein kinase 38-like (Homo sapiens) (UniProt Q9Y2H1); experiment: Inhibition of human STK38L at 100 nM using KKRNRRLSVA as substrate by [gamma-33P]-ATP assay
[6] = molecular target: Tyrosine-protein kinase JAK1 (Homo sapiens) (UniProt P23458); experiment: Inhibition of human JAK1 at 100 nM using poly[Glu:Tyr] (4:1) as substrate by [gamma-33P]-ATP assay
[7] = molecular target: [Pyruvate dehydrogenase (acetyl-transferring)] kinase isozyme 1, mitochondrial (Homo sapiens) (UniProt Q15118); experiment: Inhibition of human PDK1 at 100 nM using MBP as substrate by [gamma-33P]-ATP assay
[8] = molecular target: Protein kinase C eta type (Homo sapiens) (UniProt P24723); experiment: Inhibition of human PKCeta at 100 nM using ERMRPRKRQGSVRRRV as substrate by [gamma-33P]-ATP assay
[9] = molecular target: Dual specificity protein kinase CLK4 (Homo sapiens) (UniProt Q9HAZ1); experiment: Inhibition of human CLK4 at 100 nM using MBP as substrate by [gamma-33P]-ATP assay
[10] = molecular target: Serine/threonine-protein kinase NLK (Homo sapiens) (UniProt Q9UBE8); experiment: Inhibition of human NLK at 100 nM using MBP as substrate by [gamma-33P]-ATP assay
[11] = molecular target: Tyrosine-protein kinase Lyn (Homo sapiens) (UniProt P07948); experiment: Inhibition of human LYN at 100 nM using poly[Glu:Tyr] (4:1) as substrate by [gamma-33P]-ATP assay
[12] = molecular target: RAC-beta serine/threonine-protein kinase (Homo sapiens) (UniProt P31751); experiment: Inhibition of human AKT2 at 100 nM using KGSGSGRPRTSSFAEG as substrate by [gamma-33P]-ATP assay
[13] = molecular target: Inhibitor of nuclear factor kappa-B kinase subunit alpha (Homo sapiens) (UniProt O15111); experiment: Inhibition of human IKKalpha at 100 nM using KKKKERLLDDRHDSGLDSMKDEE as substrate by [gamma-33P]-ATP assay
[14] = molecular target: cAMP-dependent protein kinase catalytic subunit alpha (Homo sapiens) (UniProt P17612); experiment: Inhibition of human PKA at 100 nM using LCGRTGRRNSI as substrate by [gamma-33P]-ATP assay
[15] = molecular target: CDK9/cyclin T1 (Homo sapiens) (UniProt O60563+P50750); experiment: Inhibition of human CDK9/cyclin-T1 at 100 nM using KTFCGTPEYLAPEVRREPRILSEEEQEMFRDFDYIADWC as substrate by [gamma-33P]-ATP assay; assay type: protein-complex assay
A-375 = experiment: Antiproliferative activity against human A375 cells assessed as reduction in cell viability incubated for 72 hrs by MTT assay; assay type: functional, cell-based; conditions: A-375, 72 h
[16] = molecular target: Inactive tyrosine-protein kinase PEAK1 (Homo sapiens) (UniProt Q9H792); experiment: Inhibition of human PEAK1 at 100 nM using MBP as substrate by [gamma-33P]-ATP assay
[17] = molecular target: CDK9/Cyclin-T2 (Homo sapiens) (UniProt P50750+O60583); experiment: Inhibition of human CDK9/cyclin-T2 at 100 nM using KTFCGTPEYLAPEVRREPRILSEEEQEMFRDFDYIADWC as substrate by [gamma-33P]-ATP assay; assay type: protein-complex assay
[18] = molecular target: Serine/threonine-protein kinase LATS2 (Homo sapiens) (UniProt Q9NRM7); experiment: Inhibition of human LATS2 at 100 nM using KKRNRRLSVA as substrate by [gamma-33P]-ATP assay
Homo sapiens = species: Homo sapiens; experiment: Inhibition of human AMPK (A2/B2/G3) at 100 nM using HMRSAMSGLHLVKRR as substrate by [gamma-33P]-ATP assay
[19] = molecular target: Mitogen-activated protein kinase 12 (Homo sapiens) (UniProt P53778); experiment: Inhibition of human p38gamma at 100 nM using MBP as substrate by [gamma-33P]-ATP assay
[20] = molecular target: Serine/threonine-protein kinase D3 (Homo sapiens) (UniProt O94806); experiment: Inhibition of human PKCnu at 100 nM using KKLNRTLSVA as substrate by [gamma-33P]-ATP assay
[21] = molecular target: Serine/threonine-protein kinase Nek2 (Homo sapiens) (UniProt P51955); experiment: Inhibition of human NEK2 at 100 nM using MBP as substrate by [gamma-33P]-ATP assay
[22] = molecular target: Serine/threonine-protein kinase PLK1 (Homo sapiens) (UniProt P53350); experiment: Inhibition of human PLK1 at 100 nM using casein as substrate by [gamma-33P]-ATP assay
[23] = molecular target: Ephrin type-B receptor 3 (Homo sapiens) (UniProt P54753); experiment: Inhibition of human EPHB3 at 100 nM using poly[Glu:Tyr] (4:1) as substrate by [gamma-33P]-ATP assay
[24] = molecular target: Serine/threonine-protein kinase SIK3 (Homo sapiens) (UniProt Q9Y2K2); experiment: Inhibition of human SIK3 at 100 nM using AMARAASAAALARRR as substrate by [gamma-33P]-ATP assay
[25] = molecular target: LIM domain kinase 2 (Homo sapiens) (UniProt P53671); experiment: Inhibition of human LIMK2 at 100 nM using cofilin as substrate by [gamma-33P]-ATP assay
[26] = molecular target: Tau-tubulin kinase 2 (Homo sapiens) (UniProt Q6IQ55); experiment: Inhibition of human TTBK2 at 100 nM using MBP as substrate by [gamma-33P]-ATP assay
[27] = molecular target: Serine/threonine-protein kinase TAO2 (Homo sapiens) (UniProt Q9UL54); experiment: Inhibition of human TAOK2 at 100 nM using MBP as substrate by [gamma-33P]-ATP assay
[28] = molecular target: Insulin receptor-related protein (Homo sapiens) (UniProt P14616); experiment: Inhibition of human IRR at 100 nM using MBP as substrate by [gamma-33P]-ATP assay
[29] = molecular target: Calcium/calmodulin-dependent protein kinase type II subunit beta (Homo sapiens) (UniProt Q13554); experiment: Inhibition of human CAMK2B at 100 nM using KKALRRQETVDAL as substrate by [gamma-33P]-ATP assay

Chain of Serine/threonine-protein kinase SIK3 (Homo sapiens) (Q9Y2K2 whole entry, looked up, the tested form may be a part): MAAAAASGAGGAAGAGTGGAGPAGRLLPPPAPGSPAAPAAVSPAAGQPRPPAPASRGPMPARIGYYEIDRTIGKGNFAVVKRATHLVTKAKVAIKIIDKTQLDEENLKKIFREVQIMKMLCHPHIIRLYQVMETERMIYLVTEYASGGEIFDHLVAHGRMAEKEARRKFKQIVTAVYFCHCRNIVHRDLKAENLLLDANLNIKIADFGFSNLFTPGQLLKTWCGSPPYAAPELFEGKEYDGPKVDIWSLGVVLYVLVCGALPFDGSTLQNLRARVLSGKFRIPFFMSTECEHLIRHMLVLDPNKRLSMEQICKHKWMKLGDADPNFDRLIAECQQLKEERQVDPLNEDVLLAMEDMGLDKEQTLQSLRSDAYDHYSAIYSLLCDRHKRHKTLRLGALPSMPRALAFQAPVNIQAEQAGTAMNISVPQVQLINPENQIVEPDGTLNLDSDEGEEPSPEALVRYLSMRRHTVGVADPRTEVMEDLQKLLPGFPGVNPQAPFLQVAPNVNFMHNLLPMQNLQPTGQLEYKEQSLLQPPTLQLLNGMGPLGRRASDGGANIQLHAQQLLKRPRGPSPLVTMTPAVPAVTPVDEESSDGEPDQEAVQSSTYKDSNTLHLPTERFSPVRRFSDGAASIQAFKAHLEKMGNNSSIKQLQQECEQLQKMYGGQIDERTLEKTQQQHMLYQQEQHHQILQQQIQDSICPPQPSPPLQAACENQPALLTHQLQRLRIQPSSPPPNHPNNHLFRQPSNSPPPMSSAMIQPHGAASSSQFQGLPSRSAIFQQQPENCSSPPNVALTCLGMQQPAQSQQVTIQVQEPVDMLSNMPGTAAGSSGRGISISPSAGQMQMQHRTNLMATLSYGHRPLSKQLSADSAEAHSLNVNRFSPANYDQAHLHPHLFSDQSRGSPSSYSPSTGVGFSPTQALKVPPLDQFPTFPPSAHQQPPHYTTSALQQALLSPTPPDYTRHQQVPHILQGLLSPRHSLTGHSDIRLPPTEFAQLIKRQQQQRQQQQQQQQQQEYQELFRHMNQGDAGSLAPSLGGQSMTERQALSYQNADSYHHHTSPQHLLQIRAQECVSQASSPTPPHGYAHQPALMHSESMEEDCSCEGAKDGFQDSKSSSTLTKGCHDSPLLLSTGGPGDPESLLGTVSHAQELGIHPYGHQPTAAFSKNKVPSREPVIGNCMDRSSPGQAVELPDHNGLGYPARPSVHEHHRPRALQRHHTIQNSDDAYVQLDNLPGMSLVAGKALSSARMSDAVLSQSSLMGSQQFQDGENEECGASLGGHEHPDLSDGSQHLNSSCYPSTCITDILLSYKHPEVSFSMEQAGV
Chain of Insulin receptor-related protein (Homo sapiens) (P14616 27-742 limits assumed): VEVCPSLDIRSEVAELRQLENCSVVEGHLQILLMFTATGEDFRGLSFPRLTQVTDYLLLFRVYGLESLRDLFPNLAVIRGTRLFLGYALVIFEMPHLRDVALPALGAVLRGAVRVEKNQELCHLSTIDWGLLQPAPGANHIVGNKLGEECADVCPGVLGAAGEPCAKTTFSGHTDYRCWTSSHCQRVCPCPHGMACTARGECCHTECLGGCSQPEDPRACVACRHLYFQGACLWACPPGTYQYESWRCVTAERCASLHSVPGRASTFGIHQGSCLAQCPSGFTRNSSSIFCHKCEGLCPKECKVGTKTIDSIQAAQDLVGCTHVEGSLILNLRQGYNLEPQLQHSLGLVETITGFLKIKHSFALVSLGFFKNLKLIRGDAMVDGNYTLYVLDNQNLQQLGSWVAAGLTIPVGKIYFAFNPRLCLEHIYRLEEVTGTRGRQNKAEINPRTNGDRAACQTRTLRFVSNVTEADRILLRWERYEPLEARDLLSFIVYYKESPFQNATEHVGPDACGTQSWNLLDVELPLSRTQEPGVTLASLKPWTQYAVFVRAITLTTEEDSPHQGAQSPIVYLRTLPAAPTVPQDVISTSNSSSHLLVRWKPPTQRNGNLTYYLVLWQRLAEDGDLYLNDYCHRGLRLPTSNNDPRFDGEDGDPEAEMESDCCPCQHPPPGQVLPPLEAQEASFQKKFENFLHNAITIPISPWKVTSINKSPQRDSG
Chain of Insulin receptor-related protein (Homo sapiens) (P14616 747-1297 limits assumed): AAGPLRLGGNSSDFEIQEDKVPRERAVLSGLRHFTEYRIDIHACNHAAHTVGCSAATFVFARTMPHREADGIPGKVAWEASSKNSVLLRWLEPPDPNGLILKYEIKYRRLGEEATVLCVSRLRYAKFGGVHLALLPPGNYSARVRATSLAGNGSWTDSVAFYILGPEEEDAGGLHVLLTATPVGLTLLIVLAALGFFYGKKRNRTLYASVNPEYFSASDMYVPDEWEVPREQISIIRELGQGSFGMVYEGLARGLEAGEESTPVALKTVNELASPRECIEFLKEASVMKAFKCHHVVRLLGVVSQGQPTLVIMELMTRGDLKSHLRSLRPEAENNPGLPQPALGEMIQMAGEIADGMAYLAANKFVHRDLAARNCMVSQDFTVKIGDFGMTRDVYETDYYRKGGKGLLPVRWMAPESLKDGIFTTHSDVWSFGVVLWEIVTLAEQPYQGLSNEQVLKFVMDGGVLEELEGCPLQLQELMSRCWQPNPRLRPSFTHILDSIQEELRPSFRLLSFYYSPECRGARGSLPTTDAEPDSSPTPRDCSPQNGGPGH
Chain of Mitogen-activated protein kinase 12 (Homo sapiens) (P53778 whole entry): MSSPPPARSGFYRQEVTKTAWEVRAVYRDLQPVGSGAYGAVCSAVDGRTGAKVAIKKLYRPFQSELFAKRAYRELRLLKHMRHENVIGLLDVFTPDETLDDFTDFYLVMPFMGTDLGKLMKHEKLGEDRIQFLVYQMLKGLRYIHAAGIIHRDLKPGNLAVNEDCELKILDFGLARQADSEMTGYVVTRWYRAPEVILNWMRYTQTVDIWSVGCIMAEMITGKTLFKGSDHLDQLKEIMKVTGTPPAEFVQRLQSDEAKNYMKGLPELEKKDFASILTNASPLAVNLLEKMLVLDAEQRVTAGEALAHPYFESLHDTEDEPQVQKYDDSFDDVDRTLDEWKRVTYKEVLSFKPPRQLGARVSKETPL
Chain of Serine/threonine-protein kinase D3 (Homo sapiens) (O94806 whole entry): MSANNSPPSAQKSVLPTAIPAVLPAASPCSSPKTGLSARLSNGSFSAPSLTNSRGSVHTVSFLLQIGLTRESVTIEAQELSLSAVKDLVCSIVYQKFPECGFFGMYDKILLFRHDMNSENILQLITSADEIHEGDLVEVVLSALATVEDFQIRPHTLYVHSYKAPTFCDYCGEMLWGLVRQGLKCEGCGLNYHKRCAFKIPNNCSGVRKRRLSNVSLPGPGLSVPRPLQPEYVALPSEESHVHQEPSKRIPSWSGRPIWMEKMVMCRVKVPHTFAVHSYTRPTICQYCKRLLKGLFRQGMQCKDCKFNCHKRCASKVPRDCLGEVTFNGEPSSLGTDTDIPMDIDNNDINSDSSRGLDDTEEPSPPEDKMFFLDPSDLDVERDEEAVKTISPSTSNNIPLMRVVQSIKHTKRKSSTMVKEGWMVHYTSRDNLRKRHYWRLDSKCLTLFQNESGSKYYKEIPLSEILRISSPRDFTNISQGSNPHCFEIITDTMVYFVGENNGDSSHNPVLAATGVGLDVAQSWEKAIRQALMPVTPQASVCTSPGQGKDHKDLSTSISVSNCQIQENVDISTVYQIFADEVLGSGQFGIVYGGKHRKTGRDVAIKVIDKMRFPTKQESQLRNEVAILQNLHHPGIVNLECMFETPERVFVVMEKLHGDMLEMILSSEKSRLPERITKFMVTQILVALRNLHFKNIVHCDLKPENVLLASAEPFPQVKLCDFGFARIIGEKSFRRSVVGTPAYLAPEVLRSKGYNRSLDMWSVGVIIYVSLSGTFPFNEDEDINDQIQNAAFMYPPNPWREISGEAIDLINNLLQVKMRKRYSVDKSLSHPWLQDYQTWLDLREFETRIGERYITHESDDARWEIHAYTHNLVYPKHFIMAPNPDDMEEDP
Chain of Inhibitor of nuclear factor kappa-B kinase subunit alpha (Homo sapiens) (O15111 whole entry): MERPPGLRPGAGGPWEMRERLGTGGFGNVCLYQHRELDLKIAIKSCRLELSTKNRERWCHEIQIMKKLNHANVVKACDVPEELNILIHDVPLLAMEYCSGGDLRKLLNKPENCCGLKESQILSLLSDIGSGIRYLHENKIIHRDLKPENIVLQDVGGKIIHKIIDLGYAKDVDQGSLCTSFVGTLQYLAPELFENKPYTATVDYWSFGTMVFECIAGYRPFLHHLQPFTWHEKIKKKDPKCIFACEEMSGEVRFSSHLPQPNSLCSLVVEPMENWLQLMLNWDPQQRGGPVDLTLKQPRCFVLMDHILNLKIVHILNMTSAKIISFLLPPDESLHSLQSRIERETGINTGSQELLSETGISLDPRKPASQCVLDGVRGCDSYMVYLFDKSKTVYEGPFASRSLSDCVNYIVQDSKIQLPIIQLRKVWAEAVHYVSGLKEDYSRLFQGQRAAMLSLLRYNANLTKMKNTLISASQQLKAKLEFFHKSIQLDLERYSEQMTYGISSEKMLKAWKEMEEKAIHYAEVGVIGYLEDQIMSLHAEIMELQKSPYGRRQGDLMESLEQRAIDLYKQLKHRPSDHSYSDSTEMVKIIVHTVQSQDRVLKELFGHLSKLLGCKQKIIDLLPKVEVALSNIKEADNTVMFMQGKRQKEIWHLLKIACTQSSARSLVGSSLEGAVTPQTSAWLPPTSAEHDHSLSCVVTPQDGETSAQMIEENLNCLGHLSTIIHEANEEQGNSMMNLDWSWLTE
Chain of Glycogen synthase kinase-3 alpha (Homo sapiens) (P49840 2-483 limits assumed): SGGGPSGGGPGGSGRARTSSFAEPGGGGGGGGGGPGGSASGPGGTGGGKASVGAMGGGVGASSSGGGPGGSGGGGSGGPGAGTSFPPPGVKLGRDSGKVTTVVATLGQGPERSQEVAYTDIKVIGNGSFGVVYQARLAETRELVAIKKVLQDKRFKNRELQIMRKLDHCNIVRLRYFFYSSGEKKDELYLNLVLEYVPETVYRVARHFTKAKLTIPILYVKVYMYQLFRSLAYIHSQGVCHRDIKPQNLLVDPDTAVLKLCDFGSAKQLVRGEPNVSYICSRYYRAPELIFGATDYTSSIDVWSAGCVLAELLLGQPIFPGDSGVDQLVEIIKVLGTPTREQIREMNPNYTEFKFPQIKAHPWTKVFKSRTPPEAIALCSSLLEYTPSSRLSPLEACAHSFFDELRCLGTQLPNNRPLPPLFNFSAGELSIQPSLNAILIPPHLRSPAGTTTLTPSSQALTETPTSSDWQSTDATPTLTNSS

COc1ccc(N2C(=O)COc3ccc(-c4cnc(OC)c(NS(=O)(=O)c5ccc(F)cc5)c4)cc32)cc1
inhibition [1]: -8.9% | inhibition [2]: -8.76% | inhibition [3]: 3.44% | inhibition [4]: -6.07% | inhibition [5]: -2.59% | inhibition [6]: 26.8% | inhibition [7]: 25.8% | inhibition [8]: 18% | inhibition [9]: 6.64% | inhibition [10]: 10.8% | inhibition [11]: -1.62% | inhibition [12]: 28.1% | inhibition [13]: -2.43% | inhibition [14]: 15.1% | inhibition [15]: 16.8% | IC50 (A-375): 18.4 µM | inhibition [16]: 4.84% | inhibition [17]: 31.9% | inhibition [18]: 10.9% | inhibition (Homo sapiens): 5.47% | inhibition [19]: -3.86% | inhibition [20]: 2.41% | inhibition [21]: 20.4% | inhibition [22]: 8.68% | inhibition [23]: -1.65% | inhibition [24]: 8.49% | inhibition [25]: 2.98% | inhibition [26]: -3.23% | inhibition [27]: -3.9% | inhibition [28]: 14.4% | inhibition [29]: 5.36%

Source: ChEMBL document CHEMBL4364276, “Discovery of 4-phenyl-2H-benzo[b][1,4]oxazin-3(4H)-one derivatives as potent and orally active PI3K/mTOR dual inhibitors” (Eur J Med Chem, 2019)
